# Values joined by “and” are separate entries in the source; they are usually repeats but may differ in a detail not shown here. Identical values can stand only once. Like-named read-outs stand apart in the source and are kept apart here. Marks after values point to notes of the source that are not given here.
# Assays:
# NIH Swiss mice [1] = assay: Locomotor activity by biotelemetry (cannabinoid tetrad); type: in vivo, mouse; conditions: M4 10 mg/kg i.p. + JWH-018 3 mg/kg i.p.
# hCB2Rs [2] = biological target: T1, hCB2Rs (Homo sapiens (Human), UniProt P34972); assay: Competition receptor binding with [3H]CP-55,940 in CHO-hCB2 cell homogenates
# Experimental: Competition receptor binding was performed as previously described. […] Reactions were terminated by rapid vacuum filtration through Whatman GF/B glass fiber filters, followed by five washes with ice-cold buffer (50 mM Tris, 0.05% BSA). Filters were immediately placed into 7 mL scintillation vials to which 4 mL of ScintiVerse™ BD Cocktail scintillation fluid (Fisher Scientific, Fair Lawn, N.J.) was added. Bound radioactivity was determined after overnight incubation at room temperature and shaking, by liquid scintillation spectrophotometry with an efficiency of 44% (Tri Carb 2100 TR Liquid Scintillation Analyzer, Packard Instrument Company, Meriden, Conn.). Specific binding is expressed as total binding minus non-specific binding, and is graphed for each data point as a percentage of specific binding occurring in the absence of any competitor.
# The prepared analogues were subjected to in vitro pharmacological testing, which included receptor binding and functional assays at both cannabinoid receptors. Initial receptor binding screens at both CB1Rs and CB2Rs were conducted for the analogues prepared.
# [3] = biological target: CB1Rs endogenously expressed in Neuro2A cells (Mus musculus (Mouse), UniProt P47746); assay: Adenylyl cyclase (AC) inhibition via CB1Rs endogenously expressed in Neuro2A cells; type: cell-based
# NIH Swiss mice [4] = assay: Analgesia, tail-flick latency; type: in vivo, mouse; conditions: M4 10 mg/kg i.p. + JWH-018 3 mg/kg i.p.
# hCB2Rs [5] = biological target: T1, hCB2Rs; assay: Inhibition of forskolin-stimulated cAMP production (adenylyl cyclase) in intact CHO-hCB2R cells; type: cell-based
# Experimental: Adenylyl cyclases are a family of membrane-bound enzymes that catalyze the intracellular production of the second messenger cAMP from ATP. Adenylyl cyclase activity is modulated by activated G-proteins: Gs-proteins stimulate activity, while Gi/o-proteins are inhibitory. Thus, agonists of G-protein coupled receptors (GPCRs) coupled to Gi/o-proteins, such as hCB2Rs, decrease cAMP production due to inhibition of adenylyl cyclase activity. In this assay, intact CHO-hCB2R cells are preincubated with [^3H]-adenine and treated with forskolin (10 or 30 μM) to stimulate adenylyl cyclase activity.
# A functional assay screen for the inhibition of adenylate cyclase (AC) activity was chosen as the subsequent assay. […] Reaching full-receptor occupancy, which is predicted to produce maximal efficacy, is desirable at 10 μM concentration of all the compounds was used.
# [6] = tested on: mice trained to discriminate THC; assay: THC drug discrimination (generalization of JWH-018 to THC); type: in vivo, mouse; conditions: M4 10 mg/kg i.p. + JWH-018 1 mg/kg; training dose THC 10 mg/kg i.p.
# CB1Rs = CB1Rs (Mus musculus (Mouse), UniProt P47746); assay: [35S]GTPγS binding assay (G-protein activation) in mouse brain homogenates; type: biochemical
# Experimental: Mouse brain homogenates for in vitro assays were prepared as previously described. Briefly, whole brains were harvested from B6SJL mice, snap-frozen in liquid nitrogen and stored at −80° C. On the day membrane homogenates were to be prepared, brains were thawed on ice, then pooled in a 40 mL Dounce glass homogenizer and suspended in 5 volumes of ice cold homogenization buffer (50 mM HEPES, pH 7.4, 3 mM MgCl2, and 1 mM EGTA). Brains were then subjected to 10 complete strokes with an A pestle, followed by centrifugation at 40,000×g for 10 minutes at +4° C. Resulting supernatants were discarded, and the pellet was resuspended, homogenized and centrifuged similarly twice more, with supernatants being discarded. For the final resuspension and homogenization with a B pestle, ice-cold 50 mM HEPES was used in place of homogenization buffer, and homogenates were aliquoted and stored at −80° C. Protein concentrations of homogenates were determined using the BCA™ Protein Assay (Thermo Scientific, Rockford, Ill.).
# [^35S]GTPγS binding was performed as previously described. Briefly, 25 μg of mouse brain homogenates were incubated for 30 minutes at 30° C. with 0.1 nM [^35S]GTPγS, 10 μM GDP, and either cannabinoid+/−antagonist, 10 μM unlabeled GTPγS (non-specific binding) or vehicle (total binding), in triplicate, in a volume of 1 mL of buffer containing 20 mM HEPES, 10 mM MgCl2, 100 mM NaCl, 20 units/L adenosine deaminase, 0.05% BSA and the appropriate DMSO (0.1%) and/or ethanol (<0.2%) vehicle. Assay buffer containing 100 mM KCl, instead of 100 mM NaCl, was used to increase basal G-protein activity in experiments examining inverse agonism. Reactions were terminated by quick vacuum filtration through Whatman GF/B glass fiber filters, followed by five washes with ice-cold buffer (20 mM HEPES, 0.05% BSA). Filters were immediately placed into 7 mL scintillation vials to which 4 mL of ScintiVerse™ BD Cocktail scintillation fluid was added. Bound radioactivity was determined after overnight incubation at room temperature and shaking by liquid scintillation spectrophotometry with an efficiency of 93% (Tri Carb 2100 TR Liquid Scintillation Analyzer, Packard Instrument Company, Meriden, Conn.). Specific binding is expressed as picomoles of [^35S]GTPγS bound per mg of protein.
# Curve fitting and statistical analyses for in vitro experiments were performed using GraphPad Prism™ version 5.0b (GraphPad Software Inc., San Diego, Calif.). The Cheng-Prusoff equation [45] was used to convert the experimental IC50 values obtained from competition receptor binding experiments to Ki values, a quantitative measure of receptor affinity. Non-linear regression for one-site competition was used to determine the IC50 for competition receptor binding. Curve fitting of concentration-effect curves via non-linear regression was also employed to determine the EC50 (a measure of potency) and Emax (a measure of efficacy) for [^35S]GTPγS concentration-effects experiments. […] Data are expressed as mean±SEM. The Student's t-test was used to determine statistical significance (P<0.05) between two groups, while a one-way ANOVA, followed by Tukey's Multiple Comparison post-hoc test, was used to determine statistical significance (P<0.05) between three or more groups.
# mice = assay: Thermoregulation assay, antagonism of JWH-073-induced hypothermia; type: in vivo, mouse; conditions: 10 mg/kg
# Text: Our hypothesis is that a dual activity CB1R antagonist/CB2R agonist will reduce the reinforcing effects of EtOH as well as reduce the conditioned rewarding effects of ethanol in mice. The compounds selected will firstly be put through a thermoregulation assay as a screen for potential cannabinoid receptor activity. Thermoregulation will be used as a screen because of the well-established hypothermic effects seen with the use of cannabinoid ligands. This assay was done using glass radiotelemetry probes that were surgically implanted in each mouse, which monitor core temperature in response to drug administration. […] This screen does indeed confirm the in vivo cannabinoid activity of TV-5-249 and TV-6-41 and it also illustrates the evident antagonist effects against agonist induced hypothermia.
# [7] = CHO-hCB2 homogenates (100 μg), read-out: affinity (Ki) at hCB2Rs
compound,measurement,setting,value
CCCCn1cc(C(=O)c2cccc3ccccc23)c2cccc(O)c21 [Compound M4],antagonism of JWH-018-induced locomotor suppression,NIH Swiss mice [1],no difference
same,Ki,"hCB2Rs [2]; CHO-hCB2 homogenates (100 μg), listed as JWH-073-M4, read-out: affinity (Ki) at hCB2Rs",~250 nM
same,Ki,hCB2Rs [2]; [7],251 ± 91.1 nM
same,Ki,"hCB2Rs [2]; Table 3, read-out: hCB2R Ki",78.3 ± 36.2 nM
same,"inhibition of adenylyl cyclase activity, reversed by O-2050 (1 μM)",[3]; M4 1 μM,inhibited activity of the downstream intracellular effector adenylyl cyclase
same,IC50,[3]; Neuro2A cells,225 nM
same,"inhibition of AC-activity via CB1Rs, concentration-effect",[3]; Neuro2A cells,50-60%
same,antagonism of JWH-018-induced analgesia,NIH Swiss mice [4],no difference
same,"inhibition of cAMP production relative to vehicle, concentration effect curve","hCB2Rs [5]; 10 μM forskolin, n=1",81%
same,"inhibition of intracellular cAMP production, single concentration","hCB2Rs [5]; 10 μM, 30 μM forskolin",48%
same,potency (IC50) of inhibition of intracellular cAMP production,hCB2Rs [5]; CHO-hCB2R cells,nanomolar potency
same,antagonism of generalization of JWH-018 to THC (THC-appropriate responding),[6],No change in THC-appropriate responding
same,effect on basal [35S]GTPγS binding levels when tested alone,CB1Rs; 0.1 nM to 10 μM,"neither significantly increased (characteristic of agonists), nor decreased"
same,Kb,"CB1Rs; EC90 concentration of CP-55,940 (100 nM), from IC50 by modified Cheng-Prusoff, read-out: Kb, antagonism of CP-55,940-induced [35S]GTPγS binding",40.3 nM
same,antagonism of CB1R agonists and inverse agonists on [35S]GTPγS binding,"CB1Rs; M4 10 μM co-incubated with CP-55,940, JWH-018, JWH-073, Rimonabant or AM251",significantly antagonized the action of agonists
same,Kb,"CB1Rs; M4 1, 3, 10 μM shifting JWH-018 curve, read-out: Kb, Schild analysis against JWH-018",~40 nM and 48.1 nM and 48 nM
same,Schild plot slope,CB1Rs; against JWH-018,0.97
"CCCCn1cc(C(=O)c2cccc3ccccc23)c2ccccc21 [JWH-073, (1-butyl-1H-indole-3-yl)-1-naphthalenyl-methanone]",Ki,hCB2Rs [2]; [7],9.84 ± 0.92 nM
same,Ki,"hCB2Rs [2]; Table 3, read-out: hCB2R Ki",9.8 ± 0.9 nM
same,hypothermic effect,mice,profound hypothermic effect
same,"[35S]GTPγS Binding, 1 μM",CB1Rs; 1 μM,0.27 ± 0.04 pmol/mg
same,"[35S]GTPγS Binding, +O-2050 (1 μM)","CB1Rs; 1 μM cannabinoid (100 nM for CP-55,940) co-incubated with CB1R antagonist O-2050 1 μM",0.07 ± 0.02 pmol/mg
same,[35S]GTPγS Binding Emax,"CB1Rs; concentration-effect, mouse brain homogenates",0.27 ± 0.01^a pmole/mg
same,EC50,"CB1Rs; concentration-effect, mouse brain homogenates, read-out: [35S]GTPγS Binding EC50",276 ± 65.3 nM
same,"[35S]GTPγS Binding, 10 μM",CB1Rs; receptor-saturating concentration 10 μM,0.28±0.03 pmole/mg and 0.28 ± 0.03^c pmole/mg
